Data as given in patent US10703765B2 (priority 2014, dated 2020).
Counter-ions that a name gives are not always drawn.

Biological target: human σ1 receptor (Homo sapiens, UniProt Q99720)
Assay: biochemical
Assay type: binding
Parameters: μ and σ1 dual binding: key to the marks not given beside the values
Conditions: not given

Chain of human σ1 receptor (Q99720 whole entry): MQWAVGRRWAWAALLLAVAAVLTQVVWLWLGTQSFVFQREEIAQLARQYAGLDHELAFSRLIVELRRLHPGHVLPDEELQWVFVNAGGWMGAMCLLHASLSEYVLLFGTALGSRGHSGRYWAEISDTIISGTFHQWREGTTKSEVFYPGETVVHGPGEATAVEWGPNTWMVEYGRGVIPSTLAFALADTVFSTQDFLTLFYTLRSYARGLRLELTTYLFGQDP

In the case of `CC1OC2(CCN(CCc3ccccc3)CC2)CN(c2ccccn2)C1=O.Cl` (centres unmarked) [Example 196, 2-methyl-9-phenethyl-4-(pyridin-2-yl)-1-oxa-4,9-diazaspiro[5.5]undecan-3-one hydrochloride], the “μ and σ1 dual binding” value is reported as “++”.
With `COc1cccc(N2CCOC3(CCN(CCc4ccccc4)CC3)C2)c1.Cl` [Example 333, 4-(3-methoxyphenyl)-9-phenethyl-1-oxa-4,9-diazaspiro[5.5]undecane hydrochloride] the “μ and σ1 dual binding” value was “++”.
For `Cl.O=C1COC2(CCN(CCc3ccccc3O)CC2)CN1Cc1ccccn1` [Example 300, 9-(2-hydroxyphenethyl)-4-(pyridin-2-ylmethyl)-1-oxa-4,9-diazaspiro[5.5]undecan-3-one hydrochloride], the “μ and σ1 dual binding” value was “++”.
`Cl.O=C1COC2(CCN(Cc3ccccc3)CC2)CN1c1ccccc1` [Example 3, 9-benzyl-4-phenyl-1-oxa-4,9-diazaspiro[5.5]undecan-3-one hydrochloride] was tested, and the “μ and σ1 dual binding” value was “++”.
In the case of `COCCN1CC2(CCN(CCc3ccccc3)CC2)OC2(CC2)C1=O.Cl` [Example 184, 12-(2-methoxyethyl)-8-phenethyl-4-oxa-8,12-diazadispiro[2.1.5.3]tridecan-13-one hydrochloride], the “μ and σ1 dual binding” value is reported as “++”.
`CC1OC2(CCN(CCc3ccncc3)CC2)CN(c2ccccc2)C1=O.Cl` (centres unmarked) [Example 133, 2-methyl-4-phenyl-9-(2-(pyridin-4-yl)ethyl)-1-oxa-4,9-diazaspiro[5.5]undecan-3-one hydrochloride] was tested, and the “μ and σ1 dual binding” value was “++”.

`CC1OC2(CCN(CCCc3ccccc3)CC2)CN(c2ccccc2)C1=O` (centres unmarked) [Example 60, 2-methyl-4-phenyl-9-(3-phenylpropyl)-1-oxa-4,9-diazaspiro[5.5]undecan-3-one hydrochloride] and `CC1OC2(CCN(CCc3cccs3)CC2)CN(c2ccccc2)C1=O` (centres unmarked) [Example 53, 2-methyl-4-phenyl-9-(2-(thiophen-2-yl)ethyl)-1-oxa-4,9-diazaspiro[5.5]undecan-3-one] cannot be ordered by Ki: < 500 nM for the first, < 100 nM for the second.

`CC(=O)Nc1cccc(CCN2CCC3(CC2)CN(c2ccccc2)C(=O)C2(CC2)O3)c1` [Example 246, N-[3-(2-{13-oxo-12-phenyl-4-oxa-8,12-diazadispiro[2.1.5.3]tridecan-8-yl}ethyl)phenyl]acetamide] and `CC1COC2(CCN(CCc3ccccc3)CC2)CN1c1ccccc1` (centres unmarked) [Example 340, 3-methyl-9-phenethyl-4-phenyl-1-oxa-4,9-diazaspiro[5.5]undecane hydrochloride] cannot be ordered by Ki: < 500 nM for the first, < 500 nM for the second.

`CC1OC2(CCN(CCc3ccncc3Cl)CC2)CN(c2ccccc2)C1=O` (centres unmarked) [Example 50, 9-(2-(3-chloropyridin-4-yl)ethyl)-2-methyl-4-phenyl-1-oxa-4,9-diazaspiro[5.5]undecan-3-one hydrochloride] and `CC1OC2(CCN(CCc3ccccc3)CC2)CN(Cc2ccccn2)C1=O` (centres unmarked) [Example 157, 2-methyl-9-phenethyl-4-(pyridin-2-ylmethyl)-1-oxa-4,9-diazaspiro[5.5]undecan-3-one hydrochloride] cannot be ordered by Ki: < 500 nM for the first, < 100 nM for the second.

With `CC1OC2(CCN(CCc3ccccc3)CC2)CN(Cc2ccn(C)n2)C1=O` (centres unmarked) [Example 171, 2-methyl-4-((1-methyl-1H-pyrazol-3-yl)methyl)-9-phenethyl-1-oxa-4,9-diazaspiro[5.5]undecan-3-one] the Ki was < 500 nM.

Same assay, conditions: combined class from Ki-σ1 (human σ1 receptor, A1) and Ki-μ (human μ-opioid receptor, A2) radioligand binding

For `COc1ccc(CCN2CCC3(CC2)CN(c2ccccc2)CCO3)cc1` [Example 332, 9-(4-methoxyphenethyl)-4-phenyl-1-oxa-4,9-diazaspiro[5.5]undecane], the “μ and σ1 dual binding” value was “++”.
For `CC1OC2(CCN(CCc3ncccc3N)CC2)CN(c2ccccc2F)C1=O` (centres unmarked) [Example 232, 9-(2-(3-aminopyridin-2-yl)ethyl)-4-(2-fluorophenyl)-2-methyl-1-oxa-4,9-diazaspiro[5.5]undecan-3-one], the “μ and σ1 dual binding” value was “++”.

Same assay, conditions: read-out: μ and σ1 dual binding

First: O=C1N(Cc2ccc(C(F)(F)F)cn2)CC2(CCN(CCc3cccc([N+](=O)[O-])c3)CC2)OC12CC2 [Example 119, 8-(3-nitrophenethyl)-12-{[5-(trifluoromethyl)pyridin-2-yl]methyl}-4-oxa-8,12-diazadispiro[2.1.5.3]tridecan-13-one]
Second: CC(=O)Nc1cccc(CCN2CCC3(CC2)CN(Cc2ccc(C(F)(F)F)cn2)C(=O)CO3)c1 [Example 251, N-(3-(2-(3-oxo-4-((5-(trifluoromethyl)pyridin-2-yl)methyl)-1-oxa-4,9-diazaspiro[5.5]undecan-9-yl)ethyl)phenyl)acetamide hydrochloride]
The Ki of the first is higher: > 500 nM for the first, < 500 nM for the second.

`Oc1cccc(N2CCOC3(CCN(CCc4ccccc4)CC3)C2)c1` [Example 316, 3-(9-phenethyl-1-oxa-4,9-diazaspiro[5.5]undecan-4-yl)phenol] and `CC(=O)Nc1cccc(CCN2CCC3(CC2)CN(Cc2ccccc2)CCO3)c1` [Example 339, N-(3-(2-(4-benzyl-1-oxa-4,9-diazaspiro[5.5]undecan-9-yl)ethyl)phenyl)acetamide] cannot be ordered by Ki: < 500 nM for the first, < 100 nM for the second.

Going from `CC1OC2(CCN(CCc3ccccn3)CC2)CN(c2ccccc2)C1=O` (centres unmarked) [Example 58, 2-methyl-4-phenyl-9-(2-(pyridin-2-yl)ethyl)-1-oxa-4,9-diazaspiro[5.5]undecan-3-one] to `CC1OC2(CCN(CCc3ccccc3)CC2)CN(c2cccc(N)c2)C1=O` (centres unmarked) [Example 227, 4-(3-aminophenyl)-2-methyl-9-phenethyl-1-oxa-4,9-diazaspiro[5.5]undecan-3-one], the Ki rises from < 100 nM to > 500 nM. The first binds more tightly here.

First: Oc1ccccc1CCN1CCC2(CC1)CN(Cc1ccccn1)CCO2 [Example 329, 2-(2-(4-(pyridin-2-ylmethyl)-1-oxa-4,9-diazaspiro[5.5]undecan-9-yl)ethyl)phenol hydrochloride]
Second: COc1ccccc1CCN1CCC2(CC1)CN(Cc1ccccc1)CCO2 [Example 87, 4-benzyl-9-(2-methoxyphenethyl)-1-oxa-4,9-diazaspiro[5.5]undecane dihydrochloride]
The Ki of the first is lower: < 100 nM for the first, > 500 nM for the second.

Going from `CC1OC2(CCN(CCc3cccnc3[N+](=O)[O-])CC2)CN(c2cnccc2C(F)(F)F)C1=O` (centres unmarked) [Example 43, 2-methyl-9-(2-(2-nitropyridin-3-yl)ethyl)-4-(4-(trifluoromethyl)pyridin-3-yl)-1-oxa-4,9-diazasprio[5.5]undecan-3-one] to `C[C@H]1OC2(CCN(CCc3ccccc3F)CC2)CN(c2cnccc2C(F)(F)F)C1=O` [Example 127b, (R)-9-(2-fluorophenethyl)-2-methyl-4-(4-(trifluoromethyl)pyridin-3-yl)-1-oxa-4,9-diazaspiro[5.5]undecan-3-one hydrochloride], the Ki falls from > 500 nM to < 100 nM. The second binds more tightly here.

Going from `CC(=O)Nc1cccnc1CCN1CCC2(CC1)CN(c1ccccc1F)C(=O)C(C)O2` (centres unmarked) [Example 250, N-(2-(2-(4-(2-fluorophenyl)-2-methyl-3-oxo-1-oxa-4,9-diazaspiro[5.5]undecan-9-yl)ethyl)pyridin-3-yl)acetamide] to `CC1OC2(CCN(CCc3ccccc3)CC2)CN(c2ccccc2F)C1=O` (centres unmarked) [Example 192, 4-(2-fluorophenyl)-2-methyl-9-phenethyl-1-oxa-4,9-diazaspiro[5.5]undecan-3-one hydrochloride], the Ki falls from > 500 nM to < 100 nM. The second binds more tightly here.

`CC1OC2(CCN(CCc3csc(NC(=O)OC(C)(C)C)n3)CC2)CN(c2cnccc2C(F)(F)F)C1=O` (centres unmarked) [Example 121, tert-butyl (4-(2-(2-methyl-3-oxo-4-(4-(trifluoromethyl)pyridin-3-yl)-1-oxa-4,9-diazaspiro[5.5]undecan-9-yl)ethyl)thiazol-2-yl)carbamate] and `CCOC(=O)c1cccc(CCN2CCC3(CC2)CN(c2ccccc2F)C(=O)C(C)O3)c1` (centres unmarked) [Example 143, ethyl 3-(2-(4-(2-fluorophenyl)-2-methyl-3-oxo-1-oxa-4,9-diazaspiro[5.5]undecan-9-yl)ethyl)benzoate] cannot be ordered by Ki: > 500 nM for the first, > 500 nM for the second.

First: O=C1N(c2ccccc2F)CC2(CCN(CCc3ccccc3)CC2)OC12CC2 [Example 224, 12-(2-fluorophenyl)-8-phenethyl-4-oxa-8,12-diazadispiro[2.1.5.3]tridecan-13-one]
Second: O=C1N(CCO)CC2(CCN(CCc3ccccc3)CC2)OC12CC2 [Example 310, 12-(2-hydroxyethyl)-8-phenethyl-4-oxa-8,12-diazadispiro[2.1.5.3]tridecan-13-one hydrochloride]
The Ki of the first is lower: < 100 nM for the first, > 500 nM for the second. The first binds more tightly here.

Compared with `CC(=O)Nc1cccc(CN2CC3(CCN(CCc4ccccc4)CC3)OCC2=O)c1` [Example 249, N-(3-((3-oxo-9-phenethyl-1-oxa-4,9-diazaspiro[5.5]undecan-4-yl)methyl)phenyl)acetamide hydrochloride], `CC(C)C1OC2(CCN(CCc3ccccc3)CC2)CN(c2ccccc2)C1=O` (centres unmarked) [Example 17, 2-isopropyl-9-phenethyl-4-phenyl-1-oxa-4,9-diazaspiro[5.5]undecan-3-one hydrochloride] is lower in Ki: > 500 nM for the first, < 100 nM for the second. The second binds more tightly here.

`CC1OC2(CCN(CC(=O)N3CCOCC3)CC2)CN(Cc2ccc(C(F)(F)F)cn2)C1=O` (centres unmarked) [Example 124, 2-methyl-9-(2-morpholino-2-oxoethyl)-4-((5-(trifluoromethyl)pyridin-2-yl)methyl)-1-oxa-4,9-diazaspiro[5.5]undecan-3-one hydrochloride] and `CC1OC2(CCN(CCN3CCOCC3)CC2)CN(c2ccccc2)C1=O` (centres unmarked) [Example 65, 2-methyl-9-(2-morpholinoethyl)-4-phenyl-1-oxa-4,9-diazaspiro[5.5]undecan-3-one] cannot be ordered by Ki: > 500 nM for the first, > 500 nM for the second.

First: CC1OC2(CCN(CC3CC3)CC2)CN(c2ccccc2F)C1=O (centres unmarked) [Example 82, 9-(cyclopropylmethyl)-4-(2-fluorophenyl)-2-methyl-1-oxa-4,9-diazaspiro[5.5]undecan-3-one hydrochloride]
Second: CC(C)=C1OC2(CCN(CCc3scnc3C)CC2)CN(c2ccccc2F)C1=O [Example 141, 4-(2-fluorophenyl)-9-(2-(4-methylthiazol-5-yl)ethyl)-2-(propan-2-ylidene)-1-oxa-4,9-diazaspiro[5.5]undecan-3-one hydrochloride]
The Ki of the first is higher: > 500 nM for the first, < 500 nM for the second.

With `c1ccc(CCN2CCC3(CC2)CN(Cc2cscn2)CCO3)cc1` [Example 325, 9-phenethyl-4-(thiazol-4-ylmethyl)-1-oxa-4,9-diazaspiro[5.5]undecane dihydrochloride] the Ki was < 500 nM.
